Earlier results in publication PMC4562162 (CPT: Pharmacometrics & Systems Pharmacology, 2015).

Test system: CETP

CCC(CC)CC1(C(=O)Nc2ccccc2SC(=O)C(C)C)CCCCC1 [Dalcetrapib]
effect on LDL-C levels: minimal effects on LDL-C levels
